The text below walks through data of US11053207B2, “Indoleamine-2,3-dioxygenase inhibitor and preparation method therefor” (SHANGHAI INSTITUTE OF ORGANIC CHEMISTRY, CHINESE ACADEMY OF …, priority 2014, dated 2021).

Usually IC50 stands for the concentration that inhibits the measured activity by half. Lower therefore signals inhibition by little substance.

Some results are limits rather than exact numbers.

The target in experiment [1] is IDO enzyme (Homo sapiens (Human), UniProt P14902). The experiment is described as follows: IDO enzyme inhibitory activity. Format: biochemical. The settings on record: OD321 nm, 60 min. The procedure: Firstly, the IDO gene was amplified by PCR, the PCR amplification products were recovered, and then the pET28a plasmid (purchased from Shanghai Baoman Biotechnology Co., Ltd.) and the IDO gel recovery products were digested with EcoR I and Xho I restriction endonucleases (37° C., digestion for 2 h), electrophorized and recovered. The recovered products were ligated overnight by a T4 ligase and then the ligation products were added to DH5α competent cells, placed on ice for 30 min, heat-shocked at 42° C. for 90 s, cultured on a shaker, and seeded to a plate. Monoclonies were picked, identified by PCR and then by sequencing.
The constructed BL21 containing the pET28a-IDO plasmid was cultured at 37° C. to OD600=0.6-0.8, and a final concentration of 7 μM of chlorine methemoglobin and 1 mM of IPTG (isopropyl-β-D-thiogalactoside) were added for induction at 28° C. for 4 h; after the induction, the cell was centrifuged at 6000 rpm at 4° C., the collected cells were washed once with 20 mM PBS (pH6.5), and centrifuged and collected again.
The collected cells were resuspended with a lysis solution (20 mM PBS pH 6.5), ultrasonically lysed (40% of power, lysis for 20 min, placed on ice), the lysed bacteria were centrifuged at 13000 rpm for 15 min, precipitate was discarded and the supernatant was maintained; the nickel column was equilibrated with the lysis solution (20 mM PBS pH 6.5) for 3 column volumes, and then the lysis supernatant was loaded onto the nickel column; after loading, four column volumes of a rinsing solution (20 mM PBS pH 6.5, 20 mM imidazole) were used for washing, and finally protein was eluted with eluent (20 mM PBS pH 6.5, 250 mM imidazole); the eluted protein solution was dialyzed for 4 h, and the dialysis solution was 20 mM PBS, pH 6.5. After the dialysis, the protein sample was concentrated, packed, flash frozen by liquid nitrogen, and stored at −80° C. for further use.
Firstly, the compound was subject to a 3-fold gradient dilution. 1 μL of each concentration was added to a 96-well plate; 50 μL of the IDO enzyme solution (final concentration 600 ng/100μL) was added: 25 μL of substrate 1 mixture solution was added, 25 μL of substrate 2 mixture solution was added to initiate the reaction. Finally, the plate was read at OD321 nm, 60 min.

The test system of experiment [2] is Hela cells. The experiment is described as follows: Test for cell activity (Hela cells, interferon γ, kynurenine read at 480 nm). It is filed as cell-based. Conditions: human interferon γ 50 ng/mL, 48 h. The procedure:
Hela cells (100 μL) were inoculated on a 96-well plate at an inoculation amount of 5×10^3 per well and grown overnight. The next day, after the compound was diluted, 1 μL was added to a 96-well plate and then 100 μL of medium containing human interferon y (final concentration of 50 ng/mL) was added to the 96-well plate to allow the final volume to be 200 μL. 48 h after incubating, 140 μL of supernatant in each well was transferred to a new 96-well plate. 10 μL of 6.1 N trichloroacetic acid was added to each well and mixed and incubated at 50° C. for 30 min, IDO catalyzed N-formyl canine urea to become canine urea. The reaction mixture was centrifuged at 2500 rpm for 10 minutes to remove the precipitate. 100 μL of supernatant in each well was transferred to a new 96-well plate and mixed with 100 μL of 2% dimethylaminobenzaldehyde acetic acid solution. After the canine urea was separated, the value was measured at 480 nm using a SPECTRAmax i3 reader.

Sequence of IDO enzyme (P14902 whole entry): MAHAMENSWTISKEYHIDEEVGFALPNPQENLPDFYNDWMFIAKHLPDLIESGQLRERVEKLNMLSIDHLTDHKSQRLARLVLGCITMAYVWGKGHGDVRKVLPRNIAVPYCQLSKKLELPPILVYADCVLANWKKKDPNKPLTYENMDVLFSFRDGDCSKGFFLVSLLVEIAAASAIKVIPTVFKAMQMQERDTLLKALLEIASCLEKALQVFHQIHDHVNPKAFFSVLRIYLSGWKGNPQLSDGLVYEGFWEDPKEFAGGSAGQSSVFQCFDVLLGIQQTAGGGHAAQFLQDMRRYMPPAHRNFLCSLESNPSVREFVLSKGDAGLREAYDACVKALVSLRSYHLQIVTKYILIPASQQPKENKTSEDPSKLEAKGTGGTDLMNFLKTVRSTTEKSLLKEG

With `CS(=O)(CCNc1nonc1/C(=N/O)Nc1ccc(F)c(Br)c1)=NC#N` (single isomer, unassigned) [compound 6B], the values for the IC50 in experiment [1] and in experiment [2] were < 82 nM and 0.6 nM, respectively.

Turning to `C[S@](=N)(=O)CCNc1nonc1/C(=N/O)Nc1ccc(F)c(Br)c1` [compound 1B], the concentration for half-maximal inhibition (IC50) in experiment [1] is < 5200 nM; in experiment [2] it was < 80 nM.

On to `CS(=N)(=O)CCCCNc1nonc1/C(=N/O)Nc1cccc(C(F)(F)F)c1` (racemic) [compound 5, (±)(Z)—N′-hydroxy-4-((4-(thio-methylsulfoxideimine)butyl)amino)-N-(3-(trifluoromethyl)phenyl)-1,2,5-oxadiazole-3-carboxamidine], for which the IC50 in experiment [1] was < 3600 nM; in experiment [2], < 76 nM.

In the case of `CS(=O)(CCCCNc1nonc1/C(=N/O)Nc1ccc(F)c(Cl)c1)=NC#N` (racemic) [compound 12, (±)(Z)—N-(3-chloro-4-fluorophenyl)-N′-hydroxy-4-((4-(thio-methylsulfoxidecyanoamine)butyl)amino)-1,2,5-oxadiazole-3-carboxamidine], the IC50 in experiment [1] is < 18000 nM; in experiment [2], 2.8 nM.

For `CC(C)(C)C(=O)O/N=C(\Nc1ccc(F)c(Br)c1)c1nonc1NCCS(C)(=O)=NC#N` (racemic) [compound 15, (±)(Z)—N-(3-bromo-4-fluorophenyl)-N′-hydroxy-4-((2-(thio-methylsulfoxidecyanoamine)ethyl)amino)-1,2,5-oxadiazole-3-trimethyl acetate], the IC50 in experiment [1] worked out at 360 nM; in experiment [2] it was 47 nM.

For `CS(=N)(=O)CCCCNc1nonc1/C(=N/O)Nc1ccc(F)c(Br)c1` (racemic) [compound 3, (±)(Z)—N-(3-bromo-4-fluorophenyl)-N′-hydroxy-4-((4-(thio-methylsulfoxideimine)butyl)amino)-1,2,5-oxadiazole-3-carboxamidine], the results for the IC50 in experiment [1] and in experiment [2] were 74 nM and 8 nM, respectively.

For the compound `CS(=O)(CCNc1nonc1/C(=N/O)Nc1ccc(F)c(Br)c1)=NC#N` (single isomer, unassigned) [compound 6A], the IC50 in experiment [1] is < 88 nM; in experiment [2], 0.3 nM.

Take `CS(=O)(CCCNc1nonc1/C(=N/O)Nc1ccc(F)c(Cl)c1)=NC#N` (racemic) [compound 10, (±) (Z)—N-(3-chloro-4-fluorophenyl)-N′-hydroxy-4-((3-(thio-methylsulfoxidecyanoamine)propyl)amino)-1,2,5-oxadiazole-3-carboxamidine]: the IC50 was < 5000 nM in experiment [1] and 2.8 nM in experiment [2].

For the compound `C[S@@](=N)(=O)CCNc1nonc1/C(=N/O)Nc1ccc(F)c(Br)c1` [compound 1A], the IC50 in experiment [1] was < 5600 nM; in experiment [2], < 70 nM.

As to `CS(=N)(=O)CCNc1nonc1/C(=N/O)Nc1ccc(F)c(Br)c1` (racemic) [compound 1, (±) (Z)—N-(3-bromo-4-fluorophenyl)-N′-hydroxy-4-((2-(thio-methylsulfoxideimine)ethyl)amino)-1,2,5-oxadiazole-3-carboxamidine], the values for the IC50 in experiment [1] and in experiment [2] were 22 nM and 40 nM, respectively.

Take `CS(=O)(CCCCNc1nonc1/C(=N/O)Nc1ccc(F)c(Br)c1)=NC#N` (racemic) [compound 11, (±) (Z)—N-(3-bromo-4-fluorophenyl)-N′-hydroxy-4-((4-(thio-methylsulfoxidecyanoamine)butyl)amino)-1,2,5-oxadiazole-3-carboxamidine]: the IC50 was 55 nM in experiment [1] and 7.6 nM in experiment [2].

Regarding `CS(=N)(=O)CCCNc1nonc1/C(=N/O)Nc1cccc(S(F)(F)(F)(F)F)c1` (racemic) [compound 8], the figures for the IC50 in experiment [1] and in experiment [2] were < 14000 nM and < 800 nM, respectively.

For `CS(=N)(=O)CCCNc1nonc1/C(=N/O)Nc1ccc(F)c(Br)c1` (racemic) [compound 2, (±)(Z)—N-(3-bromo-4-fluorophenyl)-N′-hydroxy-4-((3-(thio-methylsulfoxideimine)propyl)amino)-1,2,5-oxadiazole-3-carboxamidine], the IC50 in experiment [1] was < 3000 nM; in experiment [2] it was < 100 nM.

Take `CS(=O)(CCCNc1nonc1/C(=N/O)Nc1ccc(F)c(Br)c1)=NC#N` (racemic) [compound 9, (±) (Z)—N-(3-bromo-4-fluorophenyl)-N′-hydroxy-4-((3-(thio-methylsulfoxidecyanoamine)propyl)amino)-1,2,5-oxadiazole-3-carboxamidine]: the IC50 in experiment [1] came to 35 nM; in experiment [2] it was 4.7 nM.

Consider `c1ccc(-c2cnc[nH]2)cc1` [5-phenyl-1-imidazole, reference compound], for which the IC50 in experiment [2] is > 50000 nM.

For the compound `CCC(C)(C)C(=O)O/N=C(\Nc1ccc(F)c(Br)c1)c1nonc1NCCS(C)(=O)=NC#N` (racemic) [compound 13, (±) (Z)—N-(3-bromo-4-fluorophenyl)-N′-hydroxy(thio-methylsulfoxidecyanoamine)ethyl)amino)-1,2,5-oxadiazole-3-(2,2-dimethyl) butyrate], the IC50 in experiment [1] is 180 nM; in experiment [2], 14 nM.

`N=S(=O)(CCNc1nonc1/C(=N/O)Nc1ccc(F)c(Br)c1)c1ccccc1` (racemic) [compound 7, (±) (Z)—N-(3-bromo-4-fluorophenyl)-N′-hydroxy-4-((2-(thio-phenylsulfoxideimine)ethyl)amino)-1,2,5-oxadiazole-3-carboxamidine]: the IC50 in experiment [1] is < 2600 nM; in experiment [2] it was < 260 nM.

`CC(C)C(=O)O/N=C(\Nc1ccc(F)c(Br)c1)c1nonc1NCCS(C)(=O)=NC#N` (racemic) [compound 14, (±)(Z)—N-(3-Br-4-fluorophenyl)-N′-hydroxy-4-((2-(thio-methylsulfoxidecyanoamine)ethyl)amino)-1,2,5-oxadiazole-3-isobutyrate]: the IC50 is 120 nM in experiment [1] and 2.2 nM in experiment [2].

As for `CS(=N)(=O)CCCCNc1nonc1/C(=N/O)Nc1ccc(F)c(C(F)(F)F)c1` (racemic) [compound 4, (±)(Z)—N-(4-fluoro-3-(trifluoromethyl)phenyl)-N′-hydroxy-4-((4-(thio-methylsulfoxideimine)butyl)amino)-1,2,5-oxadiazole-3-carboxamidine], the IC50 in experiment [1] was < 19000 nM; in experiment [2], < 500 nM.
